What all share (test): growth of human tumour cells (NCI), 48 h
In assay [1] the test system is MALME-3M melanoma.
In assay [2] the test system is SNB-19 CNS.
Assay [3] has as its system HT29 colon.
Assay [4] concerns TK-10 renal.
For assay [5], the system named is 786-0 renal.
Assay [6] deals with SN12C renal.
Assay [7] concerns SK-OV-3 ovarian.
Assay [8] concerns HS 578T breast.
The subject of assay [9] is T-47D breast.

SMILES strings stand for the structures.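 Following 48 hours of exposure in 96-well plates, responses at five concentrations were used to interpolate endpoints linearly. At the GI50, growth is halved. TGI: concentration producing complete growth inhibition.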 Some results are limits rather than exact numbers.

As for `CCOc1ccc(NC(=O)C(=O)C(C(=O)c2ccc3ccccc3c2)C2OC(=O)c3ccccc32)cc1` (stereo unspecified), the TGI in [1] was 77.4 µM; in assay [2], > 100 µM; in assay [3] it was > 100 µM; in assay [4] it was > 100 µM; in [5] it was 40.5 µM; in assay [6] it was 44 µM. In assay [7], the TGI was > 100 µM.

Turning to `Oc1c(Cl)c(Cl)c(O)c2c1CCCC2`, the TGI in assay [1] turned out to be 9.48 µM; in assay [8], 49.2 µM; in assay [2] it was 30.5 µM; in assay [3], 44.6 µM; in assay [4], 9.14 µM; in [5] it was 3.94 µM. In addition, the TGI in assay [6] was found to be 30.2 µM; in assay [7], 27.2 µM.

With `COc1ccc(NC(=S)c2ccoc2C)cc1CC(=O)OC(C)C`, the TGI was > 100 µM in assay [8]; > 100 µM in assay [2]; 36.3 µM in [3]; > 100 µM in [4]; > 100 µM in assay [9]; > 100 µM in assay [5]. For the same compound, the TGI in assay [6] and in assay [7] was > 100 µM in each case.

In the case of `CNC(=O)OCc1c2ccncc2c(C)c2c1[nH]c1ccc(OC)cc12`, the TGI in assay [1] was 1.87 µM; in [2], 1.93 µM; in assay [3], > 100 µM; in assay [4], > 100 µM; in assay [5], 0.494 µM; in [6] it was > 100 µM. For the same compound, the TGI in assay [7] was 0.866 µM.

For the compound `C[C@]12CCC(=O)CC1CCCC2=O` (stereo partly specified), the TGI in assay [1], in assay [2], in [3], in assay [4], in assay [5] and in assay [6] was > 100 µM throughout. Also, the TGI in [7] was > 100 µM.

With `CCOC(=O)/C(O)=C(/C(=O)OC)c1ccc(Cl)cc1`, the TGI in [1], in assay [2], in assay [3], in assay [4], in assay [5] and in assay [6] was > 100 µM in each case. Further, the TGI in [7] was > 100 µM.

For the compound `CCCN(CCC)C(=O)C(=O)c1c(N)[nH]n(-c2ccccc2)c1=O`, the TGI in assay [1], in assay [2], in [3], in assay [4], in assay [5] and in [6] was > 100 µM throughout. In assay [7], the TGI was > 100 µM.

Regarding `CC(=O)[CH-]C(=O)c1ccccc1.CC(=O)[CH-]C(=O)c1ccccc1.CC(=O)[CH-]C(=O)c1ccccc1.[In+3]`, the GI50 is 25.2 µM in [1]; > 100 µM in assay [2]; 31.9 µM in [3]; > 100 µM in [4]; 61.5 µM in assay [5]; 21.2 µM in assay [6]. In addition, the GI50 in [7] was 29.2 µM. The TGI in assay [1] was 84.1 µM; in [2], > 100 µM; in assay [3], > 100 µM; in assay [4] it was > 100 µM; in assay [5] it was > 100 µM; in assay [6], > 100 µM. The TGI in assay [7] turned out to be 70.9 µM.

For `COc1cc(/C=C/C(=O)c2ccc(F)cc2)ccc1OCCCN1CCN(CC(=O)Nc2ccc(Cl)cc2C(=O)c2ccccc2Cl)CC1`, the GI50 in assay [1] is 4.23 µM; in assay [8], 7.01 µM; in assay [2] it was 18.9 µM; in assay [3] it was 2.05 µM; in assay [4], 10.4 µM; in assay [9], 21.4 µM. In addition, the values for the GI50 in assay [5], in [6] and in assay [7] were 3.86 µM, 12.7 µM and 17.4 µM, respectively. The TGI in assay [1] is 15.7 µM; in [8], 46.3 µM; in assay [2] it was 49.2 µM; in assay [3] it was 10.4 µM; in [4], 26.1 µM; in [9], > 100 µM. Also, the figures for the TGI in assay [5], in [6] and in assay [7] were 15.2 µM, 44.3 µM and 44.2 µM, respectively.

With `CCc1ccc2c(c1)C(=O)c1c-2n(CCCN=[N+]=[N-])c(=O)c2cc(OC)c(OC)cc12`, the GI50 in assay [1] was > 100 µM; in [8], 89.1 µM; in [2], > 100 µM; in assay [3], > 100 µM; in [4], 44.2 µM; in assay [9], > 100 µM. The GI50 in [5] was 40.6 µM; in assay [6], > 100 µM; in assay [7], > 100 µM. The TGI in assay [1], in [8], in [2], in [3], in assay [4] and in assay [9] was > 100 µM throughout. The TGI in assay [5], in assay [6] and in [7] was > 100 µM in each case.

For the compound `CCc1cccc(C)c1NC(=O)C1=C(C)NC(C)=C(C(=O)Nc2c(C)cccc2CC)C1c1ccc2c(c1)OCO2`, the TGI in [1] came to 30.5 µM; in [2], 96.4 µM; in assay [3], 39.4 µM; in [4], 80.1 µM; in assay [5] it was 33.2 µM; in [6], 42.6 µM. Further, the TGI in assay [7] was 92.5 µM.

Regarding `COc1cccc(NC(=O)CC(=O)N2N=C(n3ccc4ccccc43)CC2c2ccccc2)c1` (stereo unspecified), the TGI in [1], in assay [2], in assay [3], in [4], in [5] and in [6] was > 100 µM each time. In addition, in assay [7], the TGI was > 100 µM.

`COc1cc([N+](=O)[O-])c(OC)cc1-c1nc2sccn2c1/C=N/N=C(N)N`: the GI50 in assay [1] is 11 µM; in assay [8], 19 µM; in [2], 8.52 µM; in assay [3], 82.1 µM; in assay [4], 18 µM; in [9], 22.2 µM. Moreover, the values for the GI50 in assay [5], in [6] and in assay [7] were 18 µM, 9.36 µM and 36.5 µM, respectively. The TGI in [1] is 40.7 µM; in [8], 43.9 µM; in assay [2] it was > 100 µM; in assay [3], > 100 µM; in assay [4] it was 50.6 µM; in [9], > 100 µM. For the same compound, the TGI in assay [5] was found to be 49.6 µM; in assay [6], 42.1 µM; in [7], 94.8 µM.

Consider `O=S(=O)(c1cccc2c(I)cccc12)N1CCCNCC1`, for which the GI50 was 15.4 µM in assay [8]; 20.9 µM in assay [2]; 20.8 µM in assay [3]; 12.8 µM in assay [4]; 25.4 µM in [9]; 16.9 µM in [5]. The GI50 was 21.2 µM in assay [6] and 20.2 µM in [7]. For the same compound, the TGI in [8] amounted to 39.5 µM; in assay [2], 42.8 µM; in assay [3] it was 55.3 µM; in assay [4] it was 28 µM; in assay [9], 64.9 µM; in [5], 32.8 µM. Besides, the results for the TGI in assay [6] and in [7] were 38.4 µM and 37.6 µM, respectively.

On to `CC(=O)O[C@H]1CCC2[C@@H]3CCC4c5nonc5CC[C@]4(C)C3CC[C@@]21C` (stereo partly specified), for which the GI50 in assay [1] and in [3] was > 100 µM in each case. The TGI in [1] was > 100 µM; in [2], > 10 µM; in [3], > 100 µM; in [4], > 10 µM; in assay [5] it was > 10 µM; in [6], > 10 µM. Also, the TGI in assay [7] was > 10 µM.

In the case of `O=C(NC(=Nc1ccccc1)SCCSC(=Nc1ccccc1)NC(=O)c1cccs1)c1cccs1`, the TGI in assay [1], in assay [2], in [3], in assay [4], in [5] and in assay [6] was > 100 µM in each case.

Take `NC(=O)NC12CC3CC(CC(F)(C3)C1)C2`: the TGI in assay [1], in [2], in [3], in assay [4], in [5] and in assay [7] was > 100 µM in each case.

Turning to `Cc1ccc(-c2csc(NC(=O)N3CCN(c4cc5c(cc4F)c(=O)c(C(=O)O)cn5C4CC4)CC3)n2)cc1`, the GI50 in [1] is 1.1 µM; in [8], 0.666 µM; in assay [2] it was 0.398 µM; in assay [3], 0.307 µM; in assay [5], 0.471 µM; in [6] it was 0.366 µM. In assay [7], the GI50 was 1.35 µM. Further, the TGI is 5.67 µM in assay [1]; > 100 µM in assay [8]; > 100 µM in [2]; > 100 µM in assay [3]; 37.5 µM in [5]; > 100 µM in assay [6]. The compound further returned a TGI in assay [7] of 6.12 µM.

Turning to `O=C(N/C(=C\c1ccc(/C=C(\NC(=O)c2ccccc2)c2nc3ccccc3[nH]2)cc1)c1nc2ccccc2[nH]1)c1ccccc1`, the TGI in [1], in [2], in [3], in assay [4], in [5] and in assay [6] was > 100 µM each time. Moreover, the TGI in [7] is > 100 µM.

These data come from PubChem BioAssay (NCI).
